Key:
Experiment in all cases: relative viability (nuclei count vs DMSO), 5 days (fraction); higher = more cells survive
[1] = compound: CC1=C(N=C(N=C1N)[C@H](CC(=O)N)NC[C@@H](C(=O)N)N)C(=O)N[C@@H]([C@H](C2=CN=CN2)OC3C(C(C(C(O3)CO)O)O)OC4C(C(C(C(O4)CO)O)OC(=O)N)O)C(=O)N[C@H](C)[C@H]([C@H](C)C(=O)N[C@@H]([C@@H](C)O)C(=O)NCCC5=NC(=CS5)C6=NC(=CS6)C(=O)NCCC[S+](C)C)O [Bleomycin] + Cc1cc(Nc2cc(N3CCN(C)CC3)nc(Sc3ccc(NC(=O)C4CC4)cc3)n2)n[nH]1 [Tozasertib] (partner 0.1 µM); conditions: main component drawn
How it was run: (§1)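 Relative viability divides the nuclei count in treated wells by that in vehicle wells. Lung cancer cell lines were seeded in 1536-well plates, dosed by pin tool the next day, and fixed and stained after 5 days in one step with final 0.05% Triton X-100, 1% formaldehyde and 1 ug/ml Hoechst. Dosing was a single drug or a fixed anchor-drug dose plus five library-drug doses (not always all listed) in √10 steps, and values are medians of duplicate plates imaged at 4×.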

[2] = compound: COc1cc([C@@H]2c3cc4c(cc3[C@@H](O[C@@H]3O[C@@H]5CO[C@@H](C)O[C@H]5[C@H](O)[C@H]3O)[C@H]3COC(=O)[C@H]23)OCO4)cc(OC)c1O [Etoposide] + C[C@]1(O)C[C@@H](c2nc(-c3ccc4ccc(-c5ccccc5)nc4c3)c3c(N)nccn32)C1 [Linsitinib] (partner 1 µM)
How it was run: as §1

[3] = compound: COc1cc([C@@H]2c3cc4c(cc3[C@@H](O[C@@H]3O[C@@H]5CO[C@@H](C)O[C@H]5[C@H](O)[C@H]3O)[C@H]3COC(=O)[C@H]23)OCO4)cc(OC)c1O [Etoposide] + CC(=O)c1c(C)c2cnc(Nc3ccc(N4CCNCC4)cn3)nc2n(C2CCCC2)c1=O [Palbociclib] (partner 0.5 µM)
How it was run: as §1

[4] = compound: COc1cc([C@@H]2c3cc4c(cc3[C@@H](O[C@@H]3O[C@@H]5CO[C@@H](C)O[C@H]5[C@H](O)[C@H]3O)[C@H]3COC(=O)[C@H]23)OCO4)cc(OC)c1O [Etoposide] + CC1(C)CCC(c2ccc(Cl)cc2)=C(CN2CCN(c3ccc(C(=O)NS(=O)(=O)c4ccc(N[C@H](CCN5CCOCC5)CSc5ccccc5)c(S(=O)(=O)C(F)(F)F)c4)cc3)CC2)C1 [Navitoclax] (partner 0.5 µM)
How it was run: as §1

Cell Line | relative viability ([1]; first compound 0.01 µM) | relative viability ([1]; first compound 0.03162 µM) | relative viability ([1]; first compound 0.1 µM) | relative viability ([1]; first compound 0.3162 µM) | relative viability ([1]; first compound 1 µM) | relative viability ([2]; first compound 0.01 µM) | relative viability ([2]; first compound 0.03162 µM) | relative viability ([2]; first compound 0.1 µM) | relative viability ([2]; first compound 0.3162 µM) | relative viability ([2]; first compound 1 µM) | relative viability ([3]; first compound 0.01 µM) | relative viability ([3]; first compound 0.03162 µM) | relative viability ([3]; first compound 0.1 µM) | relative viability ([3]; first compound 0.3162 µM) | relative viability ([3]; first compound 1 µM) | relative viability ([4]; first compound 0.01 µM) | relative viability ([4]; first compound 0.03162 µM) | relative viability ([4]; first compound 0.1 µM) | relative viability ([4]; first compound 0.3162 µM) | relative viability ([4]; first compound 1 µM)
NCI-H1975 | 0.485 | 0.466 | 0.42 | 0.152 | 0.0955 | 0.973 | 1.07 | 0.902 | 0.67 | 0.345 | 0.548 | 0.665 | 0.521 | 0.331 | 0.281 | 1.09 | 1.33 | 1.06 | 0.701 | 0.468
NCI-H1623 | 0.393 | 0.427 | 0.417 | 0.301 | 0.32 |  |  |  |  |  |  |  |  |  |  |  |  |  |  | 
NCI-H1703 |  |  |  |  |  | 0.672 | 1.04 | 0.642 | 0.641 | 0.329 |  |  |  |  |  | 1.04 | 1.12 | 0.575 | 0.527 | 0.307
Calu-6 |  |  |  |  |  | 0.914 | 1.01 | 0.819 | 0.758 | 0.39 |  |  |  |  |  | 0.883 | 0.722 | 0.828 | 0.418 | 0.213
EBC-1 |  |  |  |  |  | 0.903 | 0.942 | 0.349 | 0.788 | 0.466 |  |  |  |  |  | 0.319 | 0.41 | 0.254 | 0.378 | 0.225
NCI-H358 | 0.103 | 0.101 | 0.0984 | 0.106 | 0.11 | 0.622 | 0.792 | 0.561 | 0.202 | 0.181 | 0.132 | 0.148 | 0.131 | 0.104 | 0.0757 |  |  |  |  | 
IA-LM |  |  |  |  |  | 0.584 | 0.596 | 0.348 | 0.506 | 0.527 |  |  |  |  |  | 0.595 | 0.742 | 0.731 | 0.616 | 0.431
NCI-H661 | 0.366 | 0.359 | 0.36 | 0.374 | 0.35 | 0.591 | 0.547 | 0.388 | 0.398 | 0.235 | 0.415 | 0.468 | 0.332 | 0.384 | 0.352 |  |  |  |  | 
NCI-H596 | 0.639 | 0.583 | 0.468 | 0.354 | 0.253 | 0.86 | 1.13 |  | 0.948 | 0.884 |  |  |  |  |  | 0.977 | 0.989 |  | 0.87 | 0.642
NCI-H650 | 0.584 | 0.627 | 0.57 | 0.231 | 0.188 | 0.856 | 0.809 | 0.452 | 0.445 | 0.187 | 0.29 | 0.299 | 0.26 | 0.237 | 0.161 |  |  |  |  | 
NCI-H1792 |  |  |  |  |  | 0.405 | 0.331 | 0.261 | 0.418 | 0.289 | 0.579 | 0.636 | 0.598 | 0.606 | 0.461 | 0.716 | 0.59 | 0.507 | 0.567 | 0.394
ChaGo-K-1 | 0.221 | 0.214 | 0.23 | 0.164 | 0.192 |  |  |  |  |  | 0.929 | 0.952 | 0.682 | 0.289 | 0.222 | 1.11 | 0.956 | 0.755 | 0.391 | 0.274
NCI-H522 | 0.538 | 0.542 | 0.504 | 0.418 | 0.346 |  |  |  |  |  | 0.926 | 0.988 | 0.849 | 1.16 | 0.797 |  |  |  |  | 
NCI-H1299 |  |  |  |  |  | 0.973 | 1.03 | 1 | 0.879 | 0.7 |  |  |  |  |  | 1.06 | 1.02 | 1.05 | 0.946 | 0.785
NCI-H1650 | 0.307 | 0.234 | 0.213 | 0.189 | 0.178 |  |  |  |  |  | 0.376 | 0.36 | 0.26 | 0.199 | 0.168 | 1.25 | 1.19 | 0.885 | 0.353 | 0.309
NCI-H1648 | 0.383 |  | 0.401 | 0.405 | 0.379 |  |  |  |  |  |  | 0.289 | 0.211 | 0.297 | 0.265 |  |  |  |  | 
NCI-H2342 | 0.537 | 0.522 | 0.493 | 0.432 | 0.445 |  |  |  |  |  | 0.463 | 0.542 | 0.423 | 0.425 | 0.331 |  |  |  |  | 
SW 900 | 0.507 | 0.467 | 0.341 | 0.208 | 0.174 |  |  |  |  |  | 0.585 | 0.503 | 0.593 | 0.492 | 0.263 |  |  |  |  | 
A549 |  |  |  |  |  | 0.41 | 0.584 | 0.225 | 0.262 | 0.0891 |  |  |  |  |  | 1.25 | 1.04 | 0.46 | 0.157 | 0.0716
NCI-H2170 | 0.627 | 0.826 | 0.735 | 0.549 | 0.372 |  |  |  |  |  | 0.382 | 0.427 |  | 0.36 | 0.319 | 0.625 | 0.728 |  | 0.525 | 0.399
NCI-H1563 |  |  |  |  |  | 1.17 | 1.05 | 0.957 | 0.673 | 0.612 |  |  |  |  |  |  |  |  |  | 
ABC-1 | 0.199 | 0.209 | 0.197 | 0.178 | 0.198 | 0.753 | 0.894 | 0.879 | 0.418 | 0.308 | 0.572 | 0.71 | 0.529 | 0.515 | 0.419 |  |  |  |  | 
LCLC-103H | 0.427 | 0.479 | 0.476 | 0.279 | 0.234 | 0.998 | 1.12 | 0.93 | 1.02 | 0.902 | 0.526 | 0.553 | 0.509 | 0.457 | 0.407 |  |  |  |  | 

Reference: the supplement of paper PMC10307832
